We go through 7 compounds from PubChem BioAssay (NCI).

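These data come from cells grown in 96-well plates and exposed to compound for 48 hours at five concentrations. Definition used: TGI = concentration required for complete inhibition of growth.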 Where only a bound is given, the exact number is not on record here.

Test systems include HCT-116 colon; SF-539 CNS; SNB-19 CNS; PC-3 prostate; KM12 colon; RXF 393 renal; SK-OV-3 ovarian; HCT-15 colon; MDA-MB-231 breast; TK-10 renal; IGROV1 ovarian; K-562 leukemia; NCI-H23 lung; RPMI-8226 leukemia; SF-268 CNS; DU-145 prostate; CCRF-CEM leukemia; SF-295 CNS.
Experiment in all cases: NCI-60 cell line screen, 48 h

Regarding `O=c1c2cc(I)ccc2nc(SCc2nncs2)n1Cc1ccccc1`, the TGI is greater than 100 µM in the assay with HCT-116 colon; 84.1 µM in the assay on SF-539 CNS; greater than 100 µM in the assay on SNB-19 CNS; greater than 100 µM in the assay with PC-3 prostate; greater than 100 µM in the assay with KM12 colon; 81.6 µM in the assay on RXF 393 renal. Also, the TGI was greater than 100 µM in the assay with SK-OV-3 ovarian; greater than 100 µM with HCT-15 colon; 76.7 µM in the assay on MDA-MB-231 breast; greater than 100 µM in the assay with TK-10 renal; 48.7 µM in the assay with IGROV1 ovarian; greater than 100 µM in the assay on K-562 leukemia. Further, the TGI is greater than 100 µM with NCI-H23 lung; greater than 100 µM with RPMI-8226 leukemia; greater than 100 µM in the assay with SF-268 CNS; greater than 100 µM with DU-145 prostate; 70.8 µM in the assay on CCRF-CEM leukemia; greater than 100 µM with SF-295 CNS.

Consider `CN(C)CCCN1C(=S)N(CCCN(C)C)c2c3ccccc3nc3c([N+](=O)[O-])ccc1c23`, for which the TGI is 16 µM with HCT-116 colon; 23 µM in the assay on SF-539 CNS; 26 µM with SNB-19 CNS; greater than 42.4 µM in the assay with PC-3 prostate; 16.1 µM in the assay on KM12 colon; 17.8 µM with RXF 393 renal. Besides, the TGI was 50.8 µM with SK-OV-3 ovarian; 21.9 µM in the assay with HCT-15 colon; 24 µM in the assay with MDA-MB-231 breast; 24.2 µM in the assay on TK-10 renal; 16.9 µM with IGROV1 ovarian; greater than 37.6 µM with K-562 leukemia. The TGI with NCI-H23 lung was 23.7 µM; in the assay on RPMI-8226 leukemia, 50.6 µM; with SF-268 CNS, 32.5 µM; with DU-145 prostate it was 19.8 µM; with CCRF-CEM leukemia it was greater than 100 µM; in the assay on SF-295 CNS, 23.7 µM.

Regarding `O=c1[nH]c(Cc2ccccc2)nc2c1sc1nc3ccccc3n12`, the TGI in the assay on HCT-116 colon, with SF-539 CNS, in the assay on SNB-19 CNS, in the assay with PC-3 prostate, in the assay with KM12 colon and in the assay on RXF 393 renal was greater than 100 µM each time. Besides, the TGI in the assay on SK-OV-3 ovarian, in the assay on HCT-15 colon, with MDA-MB-231 breast, in the assay with TK-10 renal, in the assay with IGROV1 ovarian and in the assay with K-562 leukemia was greater than 100 µM in each case. Also, the TGI with NCI-H23 lung, in the assay with RPMI-8226 leukemia, with SF-268 CNS, in the assay with DU-145 prostate, in the assay on CCRF-CEM leukemia and in the assay on SF-295 CNS was greater than 100 µM in each case.

Consider `CN(C)c1ccc(C=Nc2ccc(-c3nc4ccccc4[nH]3)cc2)cc1`, for which the TGI with HCT-116 colon is greater than 100 µM; in the assay on SF-539 CNS, greater than 100 µM; in the assay with SNB-19 CNS, greater than 100 µM; in the assay with PC-3 prostate it was greater than 100 µM; in the assay on KM12 colon, greater than 100 µM; in the assay with RXF 393 renal, 80 µM. Besides, the TGI with SK-OV-3 ovarian, in the assay with HCT-15 colon, in the assay on MDA-MB-231 breast, in the assay with TK-10 renal, in the assay on IGROV1 ovarian and with K-562 leukemia was greater than 100 µM each time. The TGI in the assay with NCI-H23 lung, with RPMI-8226 leukemia, in the assay on SF-268 CNS, with DU-145 prostate, with CCRF-CEM leukemia and with SF-295 CNS was greater than 100 µM throughout.

As to `N#Cc1nc(CCN2C(=O)c3ccccc3C2=O)oc1N`, the TGI with HCT-116 colon, in the assay on SF-539 CNS, in the assay with SNB-19 CNS, in the assay with PC-3 prostate, in the assay on KM12 colon and in the assay with RXF 393 renal was greater than 100 µM in each case. Moreover, the TGI in the assay with SK-OV-3 ovarian, in the assay with HCT-15 colon, in the assay on MDA-MB-231 breast, in the assay with TK-10 renal, in the assay with IGROV1 ovarian and in the assay on K-562 leukemia was greater than 100 µM each time. The TGI with NCI-H23 lung, in the assay with RPMI-8226 leukemia, in the assay with SF-268 CNS, in the assay on DU-145 prostate, in the assay on CCRF-CEM leukemia and in the assay with SF-295 CNS was greater than 100 µM in each case.

`C=CCN(c1cc(OCc2ccccc2)c2[nH]cc(C)c2c1)S(C)(=O)=O`: the TGI in the assay with HCT-116 colon was greater than 100 µM; with SF-539 CNS it was greater than 100 µM; in the assay with SNB-19 CNS, greater than 100 µM; with PC-3 prostate, greater than 100 µM; in the assay on KM12 colon, greater than 100 µM; in the assay with RXF 393 renal, 71.4 µM. Moreover, the TGI in the assay on SK-OV-3 ovarian, in the assay on HCT-15 colon, in the assay on MDA-MB-231 breast, with TK-10 renal, in the assay with IGROV1 ovarian and with K-562 leukemia was greater than 100 µM in each case. Also, the TGI in the assay on NCI-H23 lung, in the assay on RPMI-8226 leukemia, with SF-268 CNS, in the assay with DU-145 prostate, in the assay with CCRF-CEM leukemia and in the assay with SF-295 CNS was greater than 100 µM throughout.

As to `N#Cc1cc(C#N)c(N)nc1N`, the TGI in the assay with HCT-116 colon, in the assay with SF-539 CNS, in the assay on SNB-19 CNS, in the assay with PC-3 prostate, with KM12 colon and in the assay with RXF 393 renal was greater than 100 µM throughout. In addition, the TGI in the assay on SK-OV-3 ovarian, in the assay with HCT-15 colon, with MDA-MB-231 breast, in the assay on TK-10 renal, in the assay with IGROV1 ovarian and in the assay on K-562 leukemia was greater than 100 µM throughout. Besides, the TGI in the assay with NCI-H23 lung, in the assay with RPMI-8226 leukemia, with DU-145 prostate, in the assay on CCRF-CEM leukemia and with SF-295 CNS was greater than 100 µM throughout.
